# Experimental data as given in ChEMBL document CHEMBL4359901, “Cyclic enaminone as new chemotype for selective cyclooxygenase-2 inhibitory, anti-inflammatory, and analgesic activities” (Eur J Med Chem, 2019).
# Legend:
# [1] = system: Rattus norvegicus; assay: Antiinflammatory activity in Sprague-Dawley rat model of carrageenan-induced thermal hyperalgesia assessed as paw withdrawal latency pressure at 30 mg/kg, po administered 1 hr prior to carrageenan challenge and measured after 4 hrs by Von-frey test (reference value: 146.61 +/- 1.58 g); assay type: functional
# [2] = system: Rattus norvegicus; assay: Antiinflammatory activity in Wistar albino rat assessed as reduction in carrageenan-induced paw edema at 25 mg/kg, ip measured after 2 hrs by plethysmometric method (reference value: 1.58 +/- 0.21 ml); assay type: functional
# [3] = system: Rattus norvegicus; assay: Antiinflammatory activity in Sprague-Dawley rat model of carrageenan-induced thermal hyperalgesia assessed as paw withdrawal latency time at 50 mg/kg, po administered 1 hr prior to carrageenan challenge and measured after 5 hrs by planter test (reference value: 7.5 +/- 0.74 sec); assay type: functional
# [4] = system: Rattus norvegicus; assay: Antiinflammatory activity in Sprague-Dawley rat model of carrageenan-induced thermal hyperalgesia assessed as paw withdrawal latency time at 30 mg/kg, po administered 1 hr prior to carrageenan challenge and measured after 5 hrs by planter test (reference value: 7.5 +/- 0.74 sec); assay type: functional
# [5] = system: Rattus norvegicus; assay: Antiinflammatory activity in Sprague-Dawley rat model of carrageenan-induced thermal hyperalgesia assessed as paw withdrawal latency pressure at 50 mg/kg, po administered 1 hr prior to carrageenan challenge and measured after 1 hr by Randall-Selitto test (reference value: 246.55 +/- 1.05 g); assay type: functional
# [6] = system: Rattus norvegicus; assay: Analgesic activity in Wistar albino rat assessed as reaction time at 25 mg/kg, ip measured after 30 mins for 15 secs by hot plate method (reference value: 4.21 +/- 0.41 sec); assay type: functional
# [7] = system: Rattus norvegicus; assay: Antiinflammatory activity in Sprague-Dawley rat model of carrageenan-induced thermal hyperalgesia assessed as paw withdrawal latency pressure at 50 mg/kg, po administered 1 hr prior to carrageenan challenge and measured after 3 hrs by Von-frey test (reference value: 31.65 +/- 3.33 g); assay type: functional
# [8] = Ulcerogenicity in Sprague-Dawley rat assessed as formation of lesions at 30 mg/kg, po after 1 hr by microscopic analysis; assay type: toxicity, organism-based; conditions: in vivo
# [9] = Antioxidant activity assessed as DPPH radical scavenging activity at 100 uM/ml incubated for 20 mins by spectrophotometric method relative to control; assay type: functional
# [10] = system: Rattus norvegicus; assay: Antiinflammatory activity in Sprague-Dawley rat model of carrageenan-induced thermal hyperalgesia assessed as paw withdrawal latency pressure at 50 mg/kg, po administered 1 hr prior to carrageenan challenge and measured after 5 hrs by Randall-Selitto test (reference value: 224.08 +/- 7.12 g); assay type: functional
# [11] = system: Rattus norvegicus; assay: Antiinflammatory activity in Sprague-Dawley rat model of carrageenan-induced thermal hyperalgesia assessed as paw withdrawal latency pressure at 50 mg/kg, po administered 1 hr prior to carrageenan challenge and measured after 3 hrs by Von-frey test (reference value: 146.61 +/- 1.58 g); assay type: functional
# [12] = system: Rattus norvegicus; assay: Analgesic activity in Wistar albino rat assessed as reaction time at 25 mg/kg, ip measured after 120 mins for 15 secs by hot plate method (reference value: 4.32 +/- 0.52 sec); assay type: functional
# [13] = system: Rattus norvegicus; assay: Antiinflammatory activity in Sprague-Dawley rat model of carrageenan-induced thermal hyperalgesia assessed as paw withdrawal latency pressure at 30 mg/kg, po administered 1 hr prior to carrageenan challenge and measured after 5 hrs by Von-frey test (reference value: 169.58 +/- 4.26 g); assay type: functional
# [14] = Cardiotoxicity in Sprague-Dawley rat assessed as DBP rate at 50 mg/kg; assay type: toxicity, organism-based; conditions: in vivo
# [15] = Cardiotoxicity in Sprague-Dawley rat assessed as SBP rate at 50 mg/kg; assay type: toxicity, organism-based; conditions: in vivo
# [16] = system: Rattus norvegicus; assay: Analgesic activity in Wistar albino rat assessed as reaction time at 12.5 mg/kg, ip measured after 120 mins for 15 secs by hot plate method (reference value: 4.32 +/- 0.52 sec); assay type: functional
# [17] = system: Rattus norvegicus; assay: Antiinflammatory activity in Wistar albino rat assessed as reduction in carrageenan-induced paw edema at 25 mg/kg, ip measured after 1 hr by plethysmometric method (reference value: 1.43 +/- 0.19 ml); assay type: functional
# [18] = Antioxidant activity assessed as DPPH radical scavenging activity at 40 uM/ml incubated for 20 mins by spectrophotometric method relative to control; assay type: functional
# [19] = system: Rattus norvegicus; assay: Antiinflammatory activity in Sprague-Dawley rat model of carrageenan-induced thermal hyperalgesia assessed as paw withdrawal latency pressure at 30 mg/kg, po administered 1 hr prior to carrageenan challenge and measured after 3 hrs by Von-frey test (reference value: 31.65 +/- 3.33 g); assay type: functional
# [20] = system: Rattus norvegicus; assay: Antiinflammatory activity in Sprague-Dawley rat model of carrageenan-induced thermal hyperalgesia assessed as paw withdrawal latency pressure at 50 mg/kg, po administered 1 hr prior to carrageenan challenge and measured after 3 hrs by Randall-Selitto test (reference value: 176.84 +/- 8.1 g); assay type: functional
# [21] = biological target: Prostaglandin G/H synthase 1 (Ovis aries) (UniProt P05979); assay: Inhibition of ovine COX1 assessed as reduction in PGF2alpha at 10 uM incubated for 2 mins using arachidonic acid as substrate by ELISA relative to control
# [22] = system: Rattus norvegicus; assay: Antiinflammatory activity in Sprague-Dawley rat model of carrageenan-induced thermal hyperalgesia assessed as paw withdrawal latency pressure at 30 mg/kg, po administered 1 hr prior to carrageenan challenge and measured after 2 hrs by Randall-Selitto test (reference value: 231.13 +/- 3.15 g); assay type: functional
# [23] = Selectivity index, ratio of IC50 for inhibition of ovine COX1 to IC50 for inhibition of recombinant human COX2
# [24] = system: Rattus norvegicus; assay: Antiinflammatory activity in Sprague-Dawley rat model of carrageenan-induced thermal hyperalgesia assessed as paw withdrawal latency pressure at 50 mg/kg, po administered 1 hr prior to carrageenan challenge and measured after 3 hrs by Randall-Selitto test (reference value: […] g); assay type: functional
# [25] = Ulcerogenicity in Sprague-Dawley rat assessed as formation of ulcer at 50 mg/kg, po after 1 hr by microscopic analysis; assay type: toxicity, organism-based; conditions: in vivo
# [26] = system: Rattus norvegicus; assay: Antiinflammatory activity in Sprague-Dawley rat model of carrageenan-induced thermal hyperalgesia assessed as paw withdrawal latency pressure at 30 mg/kg, po administered 1 hr prior to carrageenan challenge and measured after 4 hrs by Randall-Selitto test (reference value: 200.08 +/- 10.22 g); assay type: functional
# [27] = system: Rattus norvegicus; assay: Antiinflammatory activity in Sprague-Dawley rat model of carrageenan-induced thermal hyperalgesia assessed as paw withdrawal latency pressure at 30 mg/kg, po administered 1 hr prior to carrageenan challenge and measured after 1 hr by Von-frey test (reference value: 159.88 +/- 4.66 g); assay type: functional
# [28] = system: Rattus norvegicus; assay: Antiinflammatory activity in Sprague-Dawley rat model of carrageenan-induced thermal hyperalgesia assessed as paw withdrawal latency time at 30 mg/kg, po administered 1 hr prior to carrageenan challenge and measured after 3 hrs by planter test (reference value: 4.13 +/- 0.45 sec); assay type: functional
# [29] = system: Rattus norvegicus; assay: Antiinflammatory activity in Sprague-Dawley rat model of carrageenan-induced thermal hyperalgesia assessed as paw withdrawal latency time at 30 mg/kg, po administered 1 hr prior to carrageenan challenge and measured after 4 hrs by planter test (reference value: 5.47 +/- 0.84 sec); assay type: functional
smiles,measurement,setting,value
CC(=O)N(C1=CC(=O)CCC1)c1ccc(Cl)cc1,Activity,[1],159.47 g
same,Activity,[2],1.2 mL
same,Time,[3],9.3 s
same,Time,[4],6.37 s
same,Activity,[5],272.83 g
same,Time,[6],6.86 s
same,Activity,[7],166.86 g
same,Activity,[8],Non-Toxic
same,Activity,[9],96.2%
same,Activity,[10],266.61 g
same,Activity,[11],169.23 g
same,Time,[12],11.58 s
same,Activity,[13],161.8 g
same,Activity,[14],Non-Toxic
same,Activity,[15],Non-Toxic
same,Time,[16],10.15 s
same,Activity,[17],1.25 mL
same,Activity,[18],48%
same,Activity,[19],152.92 g
same,Activity,[20],263.26 g
same,inhibition,[21],10.8%
same,Activity,[22],262.26 g
same,Ratio IC50,[23],109
same,Activity,[24],265.61 g
same,UI,[25],0
same,Activity,[26],258.94 g
same,Activity,[27],166.7 g
same,Time,[28],6.95 s
same,Time,[29],6.67 s
